Laboratory results taken from publication PMC8910649, “An Efficient Way to Screen Inhibitors of Energy-Coupling Factor (ECF) Transporters in a Bacterial Uptake Assay” (International Journal of Molecular Sciences, 2022).
Converted amounts (≈) assume the structure as drawn. Read-outs that look alike come from different tables or passages of the source. Each block holds one compound with its values, some of them ahead of it.

Key:
ECF FolT transporter = test: Bacterial (whole-cell) folate uptake assay in L. casei; details: for Inhibition at 200 μM: folate import
Description: The OD600 was measured in a Nanodrop 2000c spectrophotometer (Thermo Fisher Scientific, Waltham, MA, USA) using half-micro cuvettes. The culture was diluted to OD600 = 0.06 in 25 mL and grown under the same conditions as before for 16 h. The new overnight culture was diluted to OD600 = 0.4 in 25 mL MRS medium and regrown in a 50 mL reaction tube for 2 h under the same conditions. The culture was subsequently centrifuged, washed with 50 mL PBS (50 mM, pH 7.4), centrifuged again, and resuspended in citrate buffer (20 mM, pH 6, 2% D-Glucose, 8 g/L NaCl, 0.2 g/L KCl) while adjusting the OD600 to 0.5. Then, 185 μL of this cell suspension was subsequently distributed on an opaque MultiScreen HTS Filter Plate-GV (Merck KGaA, Darmstadt, Germany). For each plate, two wells containing buffer for blank determination were included. A stock solution of compounds in DMSO (10 μL) was added to the wells and mixed (final DMSO conc. = 5%), followed by a preincubation at RT for 10 min. The solubility of the compounds in citrate buffer was verified in 96-well plates. Poorly soluble compounds were tested at the highest possible concentration. In addition, for each plate, four negative controls containing DMSO instead of inhibitor and a positive control were included. Tritium-labeled folic acid (Moravek Biochemicals, Brea, CA, USA) (5 μL, 2 μM, radioactivity was adjusted to 12.7 Ci/mmol using unlabeled folic acid) was added to the wells leading to a final concentration of 50 nM. The solutions were mixed (final volume 200 μL) as before, and the plate was incubated in a preheated incubator at 30 °C for 30 min. The plate was covered with sealing tape during the incubation steps to avoid evaporation. To stop the reaction, the liquid in the filter plates was removed from the cells by centrifugation (3 min at 1500× g). Subsequently, the cells were washed twice with PBS (10 mM, pH 7.2), followed by centrifugation steps (3 and 5 min at 1500× g). After removal of the underdrain, residual liquid on the bottom of the filters was removed using lint-free paper towels and the plate was dried at 50 °C in the incubator. After 10 min, 30 μL of liquid scintillating fluid was added into each well, the plate was covered with sealing tape and gently vortexed for 5 min. Relative radioactivity was determined for 1 min each well in a Wallac MicroBeta TriLux BetaCounter (Perkin Elmer, Waltham, MA, USA). […] Counts were averaged and after subtraction of the blank, the percentage of inhibition was determined by the following formula: Inh. %=100-x inhibitor/x negative control×100 The data were plotted including standard deviations. IC50 values were determined by plotting percentages of inhibition against the related concentrations and fitting the Origin standard function “Hill1” to the data. The KM was determined by plotting the relative radioactivity against the folic acid concentration and fitting the Origin standard function “Hyperbl” to the data.

ECF FolT2 transporter = details: cited from earlier work
[1] = Solubility of the compounds in citrate buffer (assay conditions); type: physicochemical
Description: The data were analyzed by using OriginPro 2018G (OriginLab Corporation, Northampton, MA, USA).

[2] = test system: Streptococcus pneumoniae DSM-20566; test: Antibacterial testing (MIC); type: cell-based; details: DSM20566; Streptococcus pneumoniae DSM-20566, auxotrophic
Description: (§1) Figure S12. Screening a broad library (4−22) against ECF FolT2 transporter in the L. casei bacterial assay. Compou nds colored i n blue s howed inhibiti on bi gger than 20% when tested at 500 µ M.
(§2) Compounds were prepared as DMSO stocks a nd minimum inhibitory concentrations (MIC) were determined as de-scribed elsewhere. Bacteria were handled according to standard procedures and w ere obtained from the Ger man Col-lection of M icroorganisms and Cell Cultures (DSMZ) or were part of our interna l strain collection. In brief, bacterial cultures were diluted in Tryptic Soy Broth (TSB; 1.7% pepto ne casein, 0.3% peptone soymeal, 0.25% glucose, 0.5% NaCl, 0.25% K2HPO4; pH 7.3) or Müller– Hinton br oth (0.2% beef infusion solids, 1.75% casein hydr olysate, 0.15% starch, pH 7.4) to achieve a final inoculum of approximately 10 4 to 105 cfu/mL. Compou nd s were tested in serial dilution (0.06– […]
(§3) Organisms FolT EcfT EcfA1 EcfA2 Figure S13:
(§4) Lactobacillus delbrueckii A0A061BSU4 Q1GBJ0 Q1GBI9 numbers of the […]
(§5) Lactobacillus casei transporter (FolT,

[3] = test system: Staphylococcus aureus str. Newman; test: Antibacterial testing (MIC); type: cell-based; details: not auxotrophic
Description: as §1, §2, §3, §4, §5

[4] = test system: Streptococcus pneumoniae DSM-11865 (PRSP); test: Antibacterial testing (MIC); type: cell-based; details: auxotrophic
Description: as §1, §2, §3, §4, §5

SMILES: O=C(O)c1cccc(NCc2ccc(-c3ccccc3Cl)o2)c1 [Compound 26]
Inhibition at 200 μM (ECF FolT transporter; L. casei based uptake assay): 36%

SMILES: O=C(O)c1cc(OCc2cccc3ccccc23)ccc1O [Compound 1, reference compound]
IC50 (ECF FolT2 transporter; uptake into proteoliposomes, ECF FolT2 from L. delbrueckii): 282 ± 108 µM

SMILES: O=C(O)c1ccc(NCc2ccc(-c3ccc(Cl)cc3)o2)cc1 [Compound 24]
Inhibition at 500 μM (ECF FolT transporter; 500 μM, L. casei based uptake assay): n.i at 500 μM (n.i. = no inhibition (if inhibition < 10%))
inhibition (ECF FolT transporter; up to 500 μM, L. casei uptake assay): no inhibition

solubility under the conditions of the assay [1]: insoluble
solubility ([1]; citrate buffer with 5% DMSO, 96-well plates, pH 6, aqueous with cosolvent or surfactant or cyclodextrin, kinetic from dmso stock, citrate buffer, read-out: solubility limit (not soluble above)): ≤ 50 µM
SMILES: O=C(O)c1ccccc1NCc1ccc(-c2ccc(Cl)cc2)o1 [Compound 23]
Inhibition at 50 µM (ECF FolT transporter; 50 µM (not soluble above 50 μM), L. casei based uptake assay): 11% at 50 µM

IC50 (ECF FolT transporter; bacterial uptake assay, L. casei, 50 nM radiolabeled folic acid): 204 ± 22 µM
MIC [2]: 21 mg/L (≈ 64.1 µM)
MIC [3]: 23 mg/L (≈ 70.2 µM)
MIC [4]: 10 mg/L (≈ 30.5 µM)
SMILES: O=C(O)c1cccc(NCc2ccc(-c3ccc(Cl)cc3)o2)c1 [Compound 3]
Inhibition at 200 μM (ECF FolT transporter; L. casei based uptake assay): 43% (IC50 = 204 ± 22 μM)

SMILES: Nc1nc(=O)c2nc(CNc3ccc(C(=O)N[C@@H](CCC(=O)O)C(=O)O)cc3)cnc2[nH]1 [folic acid]
Km (ECF FolT transporter; read-out: KM of folate uptake, substrate-dependent folate uptake in L. casei, PBS (50 mM, pH 7.4, 2% Glucose)): 0.049 µM
Vmax of folate uptake (ECF FolT transporter; substrate-dependent folate uptake in L. casei, PBS (50 mM, pH 7.4, 2% Glucose)): 83 (±2) counts per minute (cpm)

SMILES: O=C(O)c1cccc(NCc2ccc(-c3cccc(Cl)c3)o2)c1 [Compound 25]
Inhibition at 200 μM (ECF FolT transporter; L. casei based uptake assay): 41%

SMILES: O=C(O)c1cccc(NCc2cc(-c3ccc(Cl)cc3)co2)c1 [Compound 27]
Inhibition at 200 μM (ECF FolT transporter; L. casei based uptake assay): 8%

SMILES: O=C(O)CNCc1ccc(-c2ccc(Cl)cc2)o1 [Compound 2]
inhibition of folic acid uptake: inactive up to (ECF FolT transporter; bacterial uptake assay L. casei): > 1.2 mM
IC50 (ECF FolT2 transporter; proteoliposome uptake (in vitro assay, L. delbrueckii)): > 1200 µM
